This assay addresses T1, GST-RIPK1 (recombinant GST-RIPK1 kinase domain (residues 1-327)) (Homo sapiens, UniProt Q13546).
T1 construct: recombinant GST-RIPK1 kinase domain (residues 1-327) enzyme produced from baculovirus-transfected Sf21 cells; host or cells: baculovirus-transfected Sf21 insect cells
T1 sequence (Q13546 1-327): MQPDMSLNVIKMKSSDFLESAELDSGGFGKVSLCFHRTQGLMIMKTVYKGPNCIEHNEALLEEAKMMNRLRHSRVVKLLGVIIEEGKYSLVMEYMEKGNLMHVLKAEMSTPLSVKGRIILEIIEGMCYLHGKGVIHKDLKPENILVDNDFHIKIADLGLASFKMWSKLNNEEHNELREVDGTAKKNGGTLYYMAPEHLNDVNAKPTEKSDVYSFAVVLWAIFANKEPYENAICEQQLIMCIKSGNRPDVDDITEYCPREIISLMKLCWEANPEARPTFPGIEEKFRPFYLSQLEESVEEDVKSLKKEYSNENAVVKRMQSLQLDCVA
Kind of assay: RIPK1-ADP-Glo Enzymatic Assay. The format is biochemical. As to conditions: ten-point titration, top compound concentration of 100000 nM; 25 nM GST-RIPK1, 300 μM ATP, 3 μM dephosphorylated-MBP; 30 min pre-incubation, 150 min reaction. The method in brief:
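ADP-Glo luminescence quantifies ADP formed over 150 minutes by 25 nM Sf21-produced GST-RIPK1 (1-327) using 300 μM ATP and 3 μM dephosphorylated MBP, following 30-minute compound preincubation at 1% DMSO. Ten-point 1:3 series from 100000 nM gave EC50 via four-parameter sigmoidal regression.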
(In general: ADP-Glo turns the ADP formed in a reaction into a luminescent signal.)

What is called EC50 is the midpoint of the concentration-response curve.

For `O=C1N2[C@@H](CC[C@H]2c2cnccn2)O[C@]12C[C@@H](OCc1ccc3oncc3c1)C2` [Example 18.59, (5′S)-3-[(1,2-benzoxazol-5-yl)methoxy]-5′-(pyrazin-2-yl)tetrahydro-3′H-spiro[cyclobutane-1,2′-pyrrolo[2,1-b][1,3]oxazol]-3′-one], the EC50 was 12 nM.
With `O=C1N2[C@@H](CC[C@H]2c2cnccn2)OC12CC(OCc1ccnc3ccnn13)C2` (stereo partly drawn) [Example 18.60, (5′S)-5′-(pyrazin-2-yl)-3-[(pyrazolo[1,5-a]pyrimidin-7-yl)methoxy]tetrahydro-3′H-spiro[cyclobutane-1,2′-pyrrolo[2,1-b][1,3]oxazol]-3′-one], the EC50 is 91 nM.
Then `O=C1N2C(CC[C@H]2c2cnccn2)OC12CC(OCc1ccc3scnc3c1)C2` (stereo partly drawn) [Example 18.61, (5′S)-3-[(1,3-benzothiazol-5-yl)methoxy]-5′-(pyrazin-2-yl)tetrahydro-3′H-spiro[cyclobutane-1,2′-pyrrolo[2,1-b][1,3]oxazol]-3′-one], with 37 nM; and `N#CCc1cccc(COC2CC3(C2)OC2CC[C@@H](c4cnccn4)N2C3=O)c1` (stereo partly drawn) [Example 18.62, [3-({[(5′S)-3′-oxo-5′-(pyrazin-2 yl)tetrahydro-3′H-spiro[cyclobutane-1,2′-pyrrolo[2,1-b][1,3]oxazol]-3-yl]oxy}methyl)phenyl]acetonitrile], with 47 nM.
Regarding `O=C1N2C(CC[C@H]2c2cnccn2)OC12CC(OCc1ccc(C(F)F)cn1)C2` (stereo partly drawn) [Example 18.63, (5′S)-3-{[5-(difluoromethyl)pyridin-2-yl]methoxy}-5′-(pyrazin-2-yl)tetrahydro-3′H-spiro[cyclobutane-1,2′-pyrrolo[2,1-b][1,3]oxazol]-3′-one], the half-maximal effective concentration (EC50) came to 354 nM.
Regarding `O=C1N2C(CC[C@H]2c2cnccn2)OC12CC(OCc1nnc(Cc3ccccc3)s1)C2` (stereo partly drawn) [Example 18.64, (5′S)-3-[(5-benzyl-1,3,4-thiadiazol-2-yl)methoxy]-5′-(pyrazin-2-yl)tetrahydro-3′H-spiro[cyclobutane-1,2′-pyrrolo[2,1-b][1,3]oxazol]-3′-one], the EC50 worked out at 122 nM.
Then `N#Cc1ccc(COC2CC3(C2)OC2CC[C@@H](c4cnccn4)N2C3=O)c2cccnc12` (stereo partly drawn) [Example 18.65, 5-({[(5′S)-3′-oxo-5′-(pyrazin-2-yl)tetrahydro-3′H-spiro[cyclobutane-1,2′-pyrrolo[2,1-b][1,3]oxazol]-3-yl]oxy}methyl)quinoline-8-carbonitrile], with 32 nM.
Regarding `CCC(C)Oc1cccc(COC2CC3(C2)O[C@@H]2CC[C@@H](c4cnccn4)N2C3=O)n1` (stereo partly drawn) [Example 18.66, (5′S,7a′R)-3-({6-[(butan-2-yl)oxy]pyridin-2-yl}methoxy)-5′-(pyrazin-2-yl)tetrahydro-3′H-spiro[cyclobutane-1,2′-pyrrolo[2,1-b][1,3]oxazol]-3′-one], the EC50 was determined as 141 nM.
Consider `CS(=O)(=O)c1ccc(COC2CC3(C2)OC2CC[C@@H](c4cnccn4)N2C3=O)cc1` (stereo partly drawn) [Example 18.67, (5′S)-3-{[4-(methylsulfonyl)phenyl]methoxy}-5′-(pyrazin-2-yl)tetrahydro-3′H-spiro[cyclobutane-1,2′-pyrrolo[2,1-b][1,3]oxazol]-3′-one], for which the EC50 came out at 88 nM.
Regarding `O=C1N2C(CC[C@H]2c2cnccn2)OC12CC(OCc1csc3ncccc13)C2` (stereo partly drawn) [Example 18.68, (5′S)-5′-(pyrazin-2-yl)-3-[(thieno[2,3-b]pyridin-3-yl)methoxy]tetrahydro-3′H-spiro[cyclobutane-1,2′-pyrrolo[2,1-b][1,3]oxazol]-3′-one], the EC50 is 43 nM.
Consider `O=C1N2C(CC[C@H]2c2cnccn2)OC12CC(OCc1ccc3nccn3c1)C2` (stereo partly drawn) [Example 18.69, (5′S)-3-[(imidazo[1,2-a]pyridin-6-yl)methoxy]-5′-(pyrazin-2-yl)tetrahydro-3′H-spiro[cyclobutane-1,2′-pyrrolo[2,1-b][1,3]oxazol]-3′-one], for which the EC50 was 109 nM.
Regarding `COc1ccc(COC2CC3(C2)OC2CC[C@@H](c4cnccn4)N2C3=O)cn1` (stereo partly drawn) [Example 18.70, (5′S)-3-[(6-methoxypyridin-3-yl)methoxy]-5′-(pyrazin-2-yl)tetrahydro-3′H-spiro[cyclobutane-1,2′-pyrrolo[2,1-b][1,3]oxazol]-3′-one], the EC50 was determined as 150 nM.
In the case of `O=C1N2C(CC[C@H]2c2cnccn2)OC12CC(OCc1csc(C3CC3)n1)C2` (stereo partly drawn) [Example 18.71, (5′S)-3-[(2-cyclopropyl-1,3-thiazol-4-yl)methoxy]-5′-(pyrazin-2-yl)tetrahydro-3′H-spiro[cyclobutane-1,2′-pyrrolo[2,1-b][1,3]oxazol]-3′-one], the concentration for a half-maximal effect (EC50) was 796 nM.
For the compound `O=C1N2C(CC[C@H]2c2cnccn2)OC12CC(OCc1cccc3cncc(F)c13)C2` (stereo partly drawn) [Example 18.72, (5′S)-3-[(4-fluoroisoquinolin-5-yl)methoxy]-5′-(pyrazin-2-yl)tetrahydro-3′H-spiro[cyclobutane-1,2′-pyrrolo[2,1-b][1,3]oxazol]-3′-one], the EC50 turned out to be 83 nM.
Regarding `O=C1N2C(CC[C@H]2c2cnccn2)OC12CC(OCc1ccc3nc(C4CC4)cn3c1)C2` (stereo partly drawn) [Example 18.73, (5′S)-3-[(2-cyclopropylimidazo[1,2-a]pyridin-6-yl)methoxy]-5′-(pyrazin-2-yl)tetrahydro-3′H-spiro[cyclobutane-1,2′-pyrrolo[2,1-b][1,3]oxazol]-3′-one], the EC50 turned out to be 111 nM.
Regarding `O=C1N2C(CC[C@H]2c2cnccn2)OC12CC(OCc1ccc(Cn3ccnc3)cc1)C2` (stereo partly drawn) [Example 18.74, (5′S)-3-({4-[(1H-imidazol-1-yl)methyl]phenyl}methoxy)-5′-(pyrazin-2-yl)tetrahydro-3′H-spiro[cyclobutane-1,2′-pyrrolo[2,1-b][1,3]oxazol]-3′-one], the EC50 amounted to 92 nM.
Regarding `COc1ccc(C#N)nc1COC1CC2(C1)OC1CC[C@@H](c3cnccn3)N1C2=O` (stereo partly drawn) [Example 18.75, 5-methoxy-6-({[(5′S)-3′-oxo-5′-(pyrazin-2-yl)tetrahydro-3′H-spiro[cyclobutane-1,2′-pyrrolo[2,1-b][1,3]oxazol]-3-yl]oxy}methyl)pyridine-2-carbonitrile], the concentration giving a half-maximal response (EC50) came out at 896 nM.
For the compound `O=C1N2C(CC[C@H]2c2cnccn2)OC12CC(OCc1cccc(Cn3ccnn3)c1)C2` (stereo partly drawn) [Example 18.76, (5′S)-5′-(pyrazin-2-yl)-3-({3-[(1H-1,2,3-triazol-1-yl)methyl]phenyl}methoxy)tetrahydro-3′H-spiro[cyclobutane-1,2′-pyrrolo[2,1-b][1,3]oxazol]-3′-one], the 50% effective concentration (EC50) amounted to 168 nM.
Take `O=C1N2C(CC[C@H]2c2cnccn2)OC12CC(OCc1cncc(OCCF)c1)C2` (stereo partly drawn) [Example 18.77, (5′S)-3-{[5-(2-fluoroethoxy)pyridin-3-yl]methoxy}-5′-(pyrazin-2-yl)tetrahydro-3′H-spiro[cyclobutane-1,2′-pyrrolo[2,1-b][1,3]oxazol]-3′-one]: the EC50 was 174 nM.
Then `N#CC1(c2ccc(COC3CC4(C3)OC3CC[C@@H](c5cnccn5)N3C4=O)cn2)CCC1` (stereo partly drawn) [Example 18.78, 1-[5-({[(5′S)-3′-oxo-5′-(pyrazin-2-yl)tetrahydro-3′H-spiro[cyclobutane-1,2′-pyrrolo[2,1-b][1,3]oxazol]-3-yl]oxy}methyl)pyridin-2-yl]cyclobutane-1-carbonitrile], with 721 nM; and `N#CC1(c2ccc(COC3CC4(C3)OC3CC[C@@H](c5cnccn5)N3C4=O)c(Cl)c2)CC1` (stereo partly drawn) [Example 18.79, 1-[3-chloro-4-({[(5′S)-3′-oxo-5′-(pyrazin-2-yl)tetrahydro-3′H-spiro[cyclobutane-1,2′-pyrrolo[2,1-b][1,3]oxazol]-3-yl]oxy}methyl)phenyl]cyclopropane-1-carbonitrile], with 20 nM; and `O=C1N2C(CC[C@H]2c2cnccn2)OC12CC(OCc1ccc(-c3ccon3)cc1)C2` (stereo partly drawn) [Example 18.80, (5′S)-3-{[4-(1,2-oxazol-3-yl)phenyl]methoxy}-5′-(pyrazin-2-yl)tetrahydro-3′H-spiro[cyclobutane-1,2′-pyrrolo[2,1-b][1,3]oxazol]-3′-one], with 45 nM.
In the case of `COc1ccc2cc(COC3CC4(C3)OC3CC[C@@H](c5cnccn5)N3C4=O)ncc2n1` (stereo partly drawn) [Example 18.81, (5′S)-3-[(2-methoxy-1,7-naphthyridin-6-yl)methoxy]-5′-(pyrazin-2-yl)tetrahydro-3′H-spiro[cyclobutane-1,2′-pyrrolo[2,1-b][1,3]oxazol]-3′-one], the half-maximal effective concentration (EC50) amounted to 756 nM.
As for `O=C1N2C(CC[C@H]2c2cnccn2)OC12CC(OCc1cc(Cl)ccc1-c1cnco1)C2` (stereo partly drawn) [Example 18.82, (5′S)-3-{[5-chloro-2-(1,3-oxazol-5-yl)phenyl]methoxy}-5′-(pyrazin-2-yl)tetrahydro-3′H-spiro[cyclobutane-1,2′-pyrrolo[2,1-b][1,3]oxazol]-3′-one], the EC50 came to 99 nM.
For the compound `COc1cc(COC2CC3(C2)OC2CC[C@@H](c4cnccn4)N2C3=O)cc2nccn12` (stereo partly drawn) [Example 18.83, (5′S)-3-[(5-methoxyimidazo[1,2-a]pyridin-7-yl)methoxy]-5′-(pyrazin-2-yl)tetrahydro-3′H-spiro[cyclobutane-1,2′-pyrrolo[2,1-b][1,3]oxazol]-3′-one], the half-maximal effective concentration (EC50) is 140 nM.
Turning to `O=C1N2C(CC[C@H]2c2cnccn2)OC12CC(OCc1cccc3nccn13)C2` (stereo partly drawn) [Example 18.84, (5′S)-3-[(imidazo[1,2-a]pyridin-5-yl)methoxy]-5′-(pyrazin-2-yl)tetrahydro-3′H-spiro[cyclobutane-1,2′-pyrrolo[2,1-b][1,3]oxazol]-3′-one], the EC50 was 182 nM.

The values above are taken from patent US20250154173A1 (Merck Sharp & Dohme LLC, priority 2023, published 2025).
